Measured values published in US11427807B2, “Serum-free medium containing PDGF for DS cells” (Shiseido Company, Ltd., priority 2013, dated 2022).

System: dermal sheath (DS) cells
Assay: Growth of DS cells using serum-free medium
Format: cell-based, human
Settings: culturing in serum-free medium containing added PDGF
Procedure: A 12-well plate (BD) was coated with CELLStart™ (Life Technologies), and cryopreserved DS cells (from person scalp, DSC, passage number: 0) were suspended in 1 ml of serum-free medium and seeded on the plate at 4×10^4 cells per well. The serum-free media used were 1) HFDM-1(−) medium (Cell Science & Technology Institute), 2) HFDM-1(+) medium (Cell Science & Technology Institute), 3) PDGF-AA (10 ng/ml)-dissolved HFDM-1(−) medium and 4) PDGF-BB (10 ng/ml)-dissolved HFDM-1(−) medium. Culturing was conducted at 37° C. in the presence of 5% carbon dioxide gas. The cells were observed under microscopy on days 2, 5 and 10 (FIG. 1: 40×), and the number of cells per visual field was counted (FIG. 2).
A 12-well plate (BD) was coated with CELLStart™ (Life Technologies), and cryopreserved DS cells (from person scalp, DSC, passage number: 0) were suspended in 1 ml of serum-free medium and seeded on the plate at 4×10^4 cells per well. The serum-free media used were 1) StemProSFM CTS (sup+, Life Technologies), 2) PDGF-BB (10 ng/ml)-dissolved StemProSFM CTS (sup+, Life Technologies) and 3) Mosaic hMSC SF Culture Medium (sup+, BD) and 4) PDGF-BB (10 ng/ml)-dissolved Mosaic hMSC SF Culture Medium (sup+, BD). […] The cells were observed under microscopy on days 2 and 7 (FIG. 3: 40×), and the number of cells per visual field was counted (FIG. 4). […]

With PDGF the “growth of DS cells (number of cells per visual field)” value was “significantly grow DS cells”.
